Source: ChEMBL document CHEMBL1126516, “Synthesis, biological activity and electrostatic properties of 3-[2-(dimethylamino)ethyl]-5-[(3-amino-1,2,4-thiadiazol-5-yl)methyl]-1H-indole, a novel 5-HT1D receptor agonist” (Bioorg Med Chem Lett, 1993)

Organism: Oryctolagus cuniculus
Test: Compound was tested for the contraction of New Zealand white rabbit saphenous vein
Format: functional
For CN(C)CCc1c[nH]c2ccc(Cc3nc(N)ns3)cc12, the EC50 was 10 nM.
NCCc1c[nH]c2ccc(O)cc12 [SEROTONIN] gave an EC50 of 158 nM.
In the case of CNS(=O)(=O)Cc1ccc2[nH]cc(CCN(C)C)c2c1, the EC50 is reported as 631 nM.
CN(C)CCc1c[nH]c2ccc(Cc3nc(N)no3)cc12 showed an EC50 of 501 nM.
